From patent US20240269128A1, “COMPOUNDS FOR TREATING OR PREVENTING ALZHEIMER'S DISEASE” (THE UNITED STATES OF AMERICA, as represented by the …, priority 2021, published 2024)

Legend:
Format in all cases: cell-based, mouse
BV-2 cells = assay: Aβ1-42 clearance Protonex assay; details: 25 μM HCQ pretreatment, Protonex Green label
Description: Aβ1-42 clearance-Protonex assay: For Abeta (Aβ1-42) clearance Protonex assay, 5000 BV-2 cells per well (uncoated 96 well plates) were plated out. After changing cells to treatment medium, HCQ (25 μM) was applied 1 hour before stimulation with Protonex™ Green 500, SE (21216, AAT Bioquest) labelled Aβ1-42 (Bachem 4061966; final concentration in well: 200 ng/ml (dilutions in medium)). Cells treated with vehicle and cells treated with Aβ1-42 alone served as controls. After 3 h of Aβ1-42 stimulation, cells were imaged on Cytation 5 multimode reader (Biotek) and green fluorescence was measured.

[1] = system: murine microglial cell line BV-2; assay: LPS-induced neuroinflammation in BV-2 microglial cells (cytokines by MSD V-PLEX, MTT)
Description: Lipopolysaccharide (LPS)-Induced Neuroinflammation: The murine microglial cell line BV-2 was cultivated in DMEM medium supplemented with 10% FCS, 1% penicillin/streptomycin and 2 mM L-glutamine (culture medium). For LPS stimulation assay, 5000 BV-2 cells per well (uncoated 96 well plates) were plated out and the medium was changed to treatment medium (DMEM, 5% FCS, 2 mM L-glutamine). After changing cells to treatment medium, drug compounds were administered 1 hour before LPS stimulation (Sigma-Aldrich; L6529; 1 mg/ml stock in ddH2O, final concentration in well: 100 ng/ml (dilutions in medium)). Cells treated with vehicle, cells treated with LPS alone, as well as cells treated with LPS plus reference item (dexamethasone 10 μM, Sigma D4902) served as controls. After 24 h of stimulation, cell supernatants were collected for the cytokine measurement (V-PLEX Proinflammatory Panel 1 Mouse Kit, K15048D, Mesoscale) and cells were subjected to MTT assay.
MTT Assay: MTT solution was added to each well in a final concentration of 0.5 mg/mL. After 2 h, the MTT containing medium was aspirated. Cells were lysed in 3% SDS and the formazan crystals were dissolved in isopropanol/HCl. Optical density was measured with a Cytation 5 (Biotek) multimode reader at wavelength 570 nm. Values were calculated as percent of control values (vehicle control or lesion control).
After changing cells to treatment medium, HCQ (0.25 μM, 2.5 μM and 25 μM) was applied 1 hour before LPS stimulation (Sigma-Aldrich; L6529; 1 mg/ml stock in ddH2O, final concentration in well: 100 ng/ml (dilutions in medium)).

[2] = system: microglia isolated from 5xFAD mice; assay: LPS-induced neuroinflammation on MACS isolated 5xFAD microglia
Description: MACS microglia isolation and cultivation: Adult microglia were isolated from 9 months old 5xFAD mice via magnetic cell sorting (MACS). The mice were terminally anesthetized by i.p. injection of Pentobarbital (600 mg/kg, dosing 10 μL/g body weight) and brains were transcardially perfused with DPBS. Brains were removed, the brainstem discarded and the remaining brain minced for cell dissociation. Cell dissociation was performed using Miltenyi Adult Brain Dissociation Kit (Miltenyi, 130-107-677). MACS cell separation was performed using CD11b (Microglia) MicroBeads, mouse (Miltenyi, 130-093-634) and MS columns on OctoMACS™ cell separator (Miltenyi). Isolated microglia were seeded onto 0.01% PLL coated plates at a density of 10.000 cells per well in 384 well plate in DMEM containing 10% FBS,1% penicillin/streptomycin, and 2 mM L-glutamine.
LPS-induced neuroinflammation on MACS isolated 5xFAD microglia: On DIV7 HCQ at 0.25 μM, 2.5 μM and 25 μM was applied 1 hour before LPS stimulation (Sigma-Aldrich; L6529; 1 mg/ml stock in ddH2O, final concentration in well: 50 ng/ml (dilutions in medium)). Cells treated with vehicle, cells treated with LPS alone, as well as cells treated with LPS plus reference item (dexamethasone 10 μM, Sigma D4902) served as controls. After 24 h of stimulation, cell supernatants were collected for the cytokine measurement (V-PLEX Proinflammatory Panel 1 Mouse Kit, K15048D, Mesoscale).

[3] = system: Primary hippocampal neurons; assay: Aβ toxicity assay; details: HCQ 25, 2.5 or 0.25 μM
Description: Aβ toxicity: Primary hippocampal neurons were prepared from E18.5 timed pregnant C57BL/6JRccHsd mice as previously described. Cells were seeded in poly-D-lysine pre-coated 96-well plates at a density of 4×10^4 cells/well and cultivated until DIV10 (Neurobasal, 2% B-27, 0.5 mM glutamine, 25 μM glutamate, 1% Penicillin-Streptomycin). On DIV10 pre-aggregated Aβ1-42 (Bachem 4061966, final concentration 10 μM, 48 h at 4° C.) was added to the cells in the presence or absence of Hydroxychloroquine sulfate (TargetMol, T0951) at 25 μM, 2.5 μM or 0.25 μM concentrations. On DIV16 cells were subject to MTT assay to determine cell viability.

CCN(CCO)CCCC(C)Nc1ccnc2cc(Cl)ccc12 (stereo not drawn) [HCQ, hydroxychloroquine]
microglial uptake of Aβ1-42 into acidic cellular compartments (BV-2 cells): enhances | IL-1b ([1]; 2.5 μM, 25 μM, LPS): dose dependent (2.5 μM<25 μM) reduction | IL-6 ([1]; 2.5 μM, 25 μM, LPS): dose dependent (2.5 μM<25 μM) reduction | IL-10 ([1]; 2.5 μM, 25 μM, LPS): dose dependent (2.5 μM<25 μM) reduction | IL-12p70 ([1]; 2.5 μM, 25 μM, LPS): dose dependent (2.5 μM<25 μM) reduction | TNF-alpha secretion ([1]; 25 μM, LPS): reduction | cell viability ([1]; HCQ in LPS assay): without any adverse effects on cell viability | release of IL1-b [2]: lowered | release of IL-10 [2]: lowered | release of IL-12p70 [2]: lowered | release of IL6 ([2]; HCQ 0.25-25 μM): lowered | toxicity due to exogenous Aβ [3]: no effects
